In patent US12065427B2, “Heterocyclic compounds capable of activating STING” (BOEHRINGER INGELHEIM INTERNATIONAL GMBH, priority 2021, dated 2024):
In brackets after ≈: the same amount, converted by molar mass.

How the values were obtained:
[1] = tested on: Human STING (hSTING, residues 155-341); experiment: Interaction with hSTING as determined by Differential Scanning Fluorimetry (DSF); assay type: binding; conditions: 100 μM test compounds, 5 μM target protein
Method in brief: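 Thermal shift of hSTING (residues 155-341, 5 μM) with test compounds at 100 μM in 20 mM Tris, 150 mM NaCl, pH 7.5, using 5× SYPRO Orange. Ramped 25 to 95 °C at 0.5 °C per cycle (15 s/cycle) by real-time PCR fluorescence. Tm from duplicate melting curves, averaged.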

[2] = Cellular permeability measurements, bidirectional Caco-2 assay; conditions: human, Caco-2, pH 7.4
Method: Cellular Permeability Measurements
(§1) Caco-2 cells were obtained from Leibniz Institute DSMZ-German Collection of Microorganisms and Cell Cultures (Braunschweig, Germany) and cultured in DMEM (Dulbecco's modified Eagle medium) containing (in final concentrations) 10% FCS (fetal calf serum), 1% NEAA (non-essential amino acids), 2 mM Glutamin, 100 U/mL Penicillin and 100 μg/mL Streptomycin. Caco-2 cells were seeded either onto 24-well Transwell inserts (Corning, #3379) for bidirectional permeability assays at a density of 160,000 cells/cm^2 and cultured for 3 weeks, with media change on every second day.
(§2) For bidirectional permeability assays 10 mM DMSO stock solutions were diluted in transport buffer (final concentrations: 128.13 mM NaCl, 5.36 mM KCl, 1 mM MgSO4, 1.8 mM CaCl2, 4.17 mM NaHCO3, 1.19 mM Na2HPO4, 0.41 mM NaH2PO4, 15 mM 2-[4-(2-hydroxyethyl)piperazin-1-yl]ethanesulfonic acid (HEPES), 20 mM glucose, pH 7.4) containing 0.25% bovine serum albumin to a final concentration of 10 μM of the test compounds and added to the apical or basal compartment. Cells were incubated with the compounds for up to 2 h. Samples from the opposite compartment were taken at different timepoints.
(§3) Compound concentrations in the compartments were quantified using a RapidFire-based high-throughput HPLC/MS/MS system (high performance liquid chromatography/mass spectrometry; Bio-Cius) that was customized to a fully automated and flexible platform, termed RIAS. In this modified setup, the sample was aspirated by a vacuum pump into a 10 μL sample loop for 250 ms and flushed onto a C4 cartridge (3.8 μL bed volume; Bio-Cius) with the aqueous mobile phase (99.9% water, 0.09% formic acid, and 0.01% TFA; flow rate 1.5 mL/min). Prior to bioanalysis samples were spiked with internal standard solution and diluted with acetonitrile (ACN) for protein precipitation. Measurement was operated in multiplereaction monitoring (MRM) mode. Quantification was performed using external calibration. A solid-phase extraction step retained the analyte for 3000 ms while interfering matrix (e.g., buffer components) was removed. With a simple step gradient, the analyte was back-eluted from the cartridge for 3,000 ms with the organic mobile phase (99.9% acetonitrile/methanol [1:1, v:v], 0.09% formic acid, and 0.01% TFA) and flushed into the mass spectrometer at a flow rate of 1.25 mL/min. Afterwards, the cartridge was re-equilibrated with the aqueous mobile phase for 500 ms (flow rate 1.5 mL/min).
(§4) Apparent permeability coefficients in the apical to basal direction (Papp,AB) and in the basal to apical direction (Papp,BA) and efflux ratios were calculated as follows: Papp,AB=QAB/(C0·s·t) Papp,BA=QBA/(C0·s·t) Efflux ratio=Papp,BA/Papp,AB
(§5) where Q is the amount of compound recovered in the receiver compartment after the incubation time t, C0 the initial compound concentration given to the donor compartment, and s the surface area of the Transwell inserts. […] In addition, transepithelial electrical resistance (TEER) values are measured for each plate before the permeability assay, and total recovery in donor and receiver compartments was determined for each compound.

STING HAQ-variant = molecular target: T1, STING HAQ-variant (Homo sapiens, UniProt Q86WV6, G230A/H232R/R293Q/R71H); experiment: IRF-inducible SEAP reporter assay in THP1-Blue ISG cells, STING HAQ-variant; assay type: cell-based; conditions: STING HAQ-variant (parental or re-introduced), 24 hours incubation
T1 construct: parental THP1-Blue™ ISG cell lines (which express endogenously HAQ); host or cells: THP1-Blue ISG (parental, endogenous HAQ) or STING-KO clone re-transduced with HAQ (MSCV-ires-GFP-Blasti)
T1 sequence (Q86WV6 whole entry R71H/G230A/H232R/R293Q): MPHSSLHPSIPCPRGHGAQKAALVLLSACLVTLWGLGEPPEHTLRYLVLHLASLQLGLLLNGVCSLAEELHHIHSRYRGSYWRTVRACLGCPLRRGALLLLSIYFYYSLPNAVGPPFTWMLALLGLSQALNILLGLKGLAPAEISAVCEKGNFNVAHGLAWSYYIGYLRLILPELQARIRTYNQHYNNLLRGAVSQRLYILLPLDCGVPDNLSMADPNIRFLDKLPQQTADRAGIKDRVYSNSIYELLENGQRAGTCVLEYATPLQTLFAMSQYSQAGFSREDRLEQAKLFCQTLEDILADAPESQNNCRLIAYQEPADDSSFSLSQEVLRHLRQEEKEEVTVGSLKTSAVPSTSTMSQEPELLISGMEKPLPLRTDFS
Method in brief: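 THP1-Blue ISG cells expressing STING HAQ, either endogenously (parental) or re-introduced after CRISPR knockout, were seeded at 10000 cells/well. They received 8-point compound dilutions (0.5% DMSO final) for 24 hours at 37° C. IRF-driven SEAP was read with Quanti-Blue at OD 620 nm after 30 minutes, and EC50 came from four-parameter fits.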

STING R293Q-variant = molecular target: T2, STING R293Q-variant (Homo sapiens, UniProt Q86WV6, H232R/R293Q); experiment: IRF-inducible SEAP reporter assay in THP1-Blue ISG cells, STING R293Q-variant; assay type: cell-based; conditions: 24 hours incubation
T2 construct: expressed in transfected cells; host or cells: THP1-Blue ISG hSTING KO clone, retroviral MSCV-ires-GFP-Blasti
T2 sequence (Q86WV6 whole entry H232R/R293Q): as the sequence (Q86WV6 whole entry R71H/G230A/H232R/R293Q) above, with H71R, A230G counted along it
Method in brief: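 THP1-Blue ISG cells with endogenous STING knocked out (CRISPR) and retrovirally re-expressing human STING R293Q; 10000 cells/well, compound 24 h at 37 °C, 0.5% DMSO final. SEAP read by Quanti-Blue (30 min, OD 620 nm); EC50 and Hill slope from 8-point four-parameter fit.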

STING H232R-variant = molecular target: T3, STING H232R-variant (Homo sapiens, UniProt Q86WV6, H232R); experiment: IRF-inducible SEAP reporter assay in THP1-Blue ISG cells, STING H232R-variant; assay type: cell-based; conditions: STING H232R-variant (WT), 24 hours incubation
T3 construct: expressed in transfected cells; host or cells: THP1-Blue ISG hSTING KO clone, retroviral MSCV-ires-GFP-Blasti
T3 sequence (Q86WV6 whole entry H232R): as the sequence (Q86WV6 whole entry R71H/G230A/H232R/R293Q) above, with H71R, A230G, Q293R counted along it
Method in brief: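 THP1-Blue ISG cells with endogenous STING deleted by CRISPR and retrovirally re-expressing human STING H232R; 8-point compound dilutions, 0.5% DMSO final, 24 h at 37 °C. SEAP read by Quanti-Blue, 30 min, OD 620 nm; EC50 and Hill slope from four-parameter fit.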

in vitro = conditions: human, Caco-2, pH 7.4
Method: Cellular Permeability Measurements
as §1, §2, §3, §4, §5

[3] = Solubility measurements (HTS) at pH 6.8; assay type: physicochemical; conditions: kinetic from dmso stock; aqueous McIlvaine buffer pH 6.8, 24 h at room temperature, from 10 mM DMSO stock; read-out: Soblubility
Method: Aqueous solubilities were determined from 10 mM stock solutions of the compounds in DMSO diluted to a final concentration of 250 μM with aqueous McIlvaine buffer at pH 6.8, or with acetonitrile/water (1:1) as a reference. Samples were shaken for 24 h at room temperature in 96-well plates (Whatman Uniplate® 96 wells, 750 μL, polypropylene, round bottom). The plate was then centrifuged at 3,000 rpm for 2 min. 250 μL of each sample were transferred to a Millipore MultiScreenHTS filter plate with a polycarbonate membrane, pore size 0.45 μm. Filtrates were collected by centrifugation at 3,000 rpm for 2 min. The dissolved concentrations were determined by UPLC/UV (Ultra-Performance Liquid Chromatography/ultraviolet) on a Waters ACQUITY UPLC® SQD system equipped with a Waters ACQUITY UPLC® BEH 2.1×50 mm C18 column, particle size 1.7 μm, using a short gradient with water/0.1% formic acid as solvent A and acetonitrile/0.1% formic acid as solvent B (5 to 95% B with 1.7 min total cycle time). Compounds signals were measured with a photodiode array UV detector operated at 254 nm. Solubilities were determined with a one point calibration by comparing peak areas relative to the reference standard using Waters Empower software.

STING R232H-variant = molecular target: T4, STING R232H-variant (Homo sapiens, UniProt Q86WV6); experiment: IRF-inducible SEAP reporter assay in THP1-Blue ISG cells, STING R232H-variant; assay type: cell-based; conditions: 24 hours incubation
T4 construct: expressed in transfected cells; host or cells: THP1-Blue ISG hSTING KO clone, retroviral MSCV-ires-GFP-Blasti
T4 sequence (Q86WV6 whole entry, stated change not applied): as the sequence (Q86WV6 whole entry R71H/G230A/H232R/R293Q) above, with H71R, A230G, R232H, Q293R counted along it
Method in brief: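 THP1-Blue ISG cells, endogenous STING knocked out by CRISPR and re-expressing hSTING R232H, with IRF-inducible SEAP reporter. Treated 24 h at 37 °C with 8-point compound dilutions (0.5% DMSO final); SEAP read by Quanti-Blue OD 620 nm after 30 min. EC50 from four-parameter fit.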

STING AQ-variant = molecular target: T5, STING AQ-variant (Homo sapiens, UniProt Q86WV6, G230A/H232R/R293Q); experiment: IRF-inducible SEAP reporter assay in THP1-Blue ISG cells, STING AQ-variant; assay type: cell-based; conditions: 24 hours incubation
T5 construct: expressed in transfected cells; host or cells: THP1-Blue ISG hSTING KO clone, retroviral MSCV-ires-GFP-Blasti
T5 sequence (Q86WV6 whole entry G230A/H232R/R293Q): as the sequence (Q86WV6 whole entry R71H/G230A/H232R/R293Q) above, with H71R counted along it
Method in brief: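 THP1-Blue ISG cells with endogenous STING knocked out by CRISPR and re-expressing the human STING AQ variant; compounds in 8-point dilution, final DMSO 0.5%, 24 h at 37 °C. SEAP read after 30 min with Quanti-Blue as OD 620 nm; EC50 and Hill slope from four-parameter fits.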

Row | Compound | thermal shift (ΔTm) [1] | efflux ratio at 10 μM [2] | EC50 (STING HAQ-variant) | EC50 (STING R293Q-variant) | EC50 (STING H232R-variant) | Papp A→B at 10 μM (in vitro) | efflux ratio at 10 μM (in vitro) | solubility kinetic at 24 h [3] | EC50 (STING R232H-variant) | EC50 (STING AQ-variant)
1 | Cc1cccc2c(-c3cccc4nn(C)cc34)nn(-c3ccc(N4CC5(COC5)C4)nc3)c12 [compound 3, 2′,7-dimethyl-1-(6-{2-oxa-6-azaspiro[3.3]heptan-6-yl}pyridin-3-yl)-1H,2′H-3,4′-biindazole] | 20 K | 0.6 | 3 µM | – | – | – | – | – | – | –
2 | Cn1cc2c(-c3nn(-c4ccc(N5CCC(C(=O)O)CC5)nc4)c4c(C(F)(F)F)cccc34)cccc2n1 [Example #67, 1-{5-[2′-methyl-7-(trifluo-romethyl)-1H,2′H-[3,4′-biindazol]-1-yl]pyridin-2-yl}piperidine-4-carboxylic acid] | 23 K | – | 2.2 µM | 2.1 µM | 0.7 µM | 160 nm/s | 1.2 | 0.082 mg/mL (≈ 158 µM) | 0.8 µM | 2.3 µM
3 | Cc1cccc2c(-c3cccc4nn(C)cc34)nn(-c3ccc(N4CC5C(C4)C5C(=O)O)nc3)c12 (stereo not drawn) [Example #59, 3-(5-{2′,7-dimethyl-1H,2′H-[3,4′-biindazol]-1-yl}pyridin-2-yl)-3-azabicy-clo[3.1.0]hexane-6-car-boxylic acid] | 21 K | – | 0.2 µM | 0.2 µM | 0.1 µM | 110 nm/s | 2.5 | 0.066 mg/mL (≈ 142 µM) | 0.1 µM | 0.1 µM
4 | Cc1cccc2c(-c3cccc4nn(C)cc34)nn(-c3ccc(N4CCC(C(=O)O)CC4)nc3)c12 [Example #57, 1-(5-(2′,7-dimethyl-1H,2′H-[3,4′-biindazol]-1-yl)pyridin-2-yl)piperidine-4-carboxylic acid] | 17 K | – | 0.7 µM | 0.6 µM | 0.2 µM | 150 nm/s | 1.2 | 0.08 mg/mL (≈ 171 µM) | 0.2 µM | 0.3 µM
